These are literature values, as cited in patent US11510895B2, “Compositions and formulations including cabazitaxel and human serum albumin” (Zhuhai Beihai Biotech Co., Ltd., priority 2016, dated 2022).

The target of series [1] is human serum albumin (Homo sapiens, UniProt P02768). The note with it: in vitro.
In series [2] the test system is human serum proteins. As to conditions: in vitro.

Chain of human serum albumin (P02768 25-609): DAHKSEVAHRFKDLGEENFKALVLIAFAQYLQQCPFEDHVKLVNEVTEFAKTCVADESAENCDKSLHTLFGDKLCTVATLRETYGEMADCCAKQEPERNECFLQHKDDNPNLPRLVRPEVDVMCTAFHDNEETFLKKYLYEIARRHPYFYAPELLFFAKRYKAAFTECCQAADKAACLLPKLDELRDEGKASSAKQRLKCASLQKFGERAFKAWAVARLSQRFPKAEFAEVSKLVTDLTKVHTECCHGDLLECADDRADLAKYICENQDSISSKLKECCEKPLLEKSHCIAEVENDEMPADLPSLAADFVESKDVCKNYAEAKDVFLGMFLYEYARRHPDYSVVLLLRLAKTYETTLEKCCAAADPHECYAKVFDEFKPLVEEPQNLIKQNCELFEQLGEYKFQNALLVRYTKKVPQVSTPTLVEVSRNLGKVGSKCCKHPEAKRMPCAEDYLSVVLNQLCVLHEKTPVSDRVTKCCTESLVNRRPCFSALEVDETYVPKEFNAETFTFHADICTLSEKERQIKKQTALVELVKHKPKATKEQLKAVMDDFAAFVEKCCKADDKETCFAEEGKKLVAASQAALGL

Regarding `CO[C@H]1C(=O)[C@]2(C)[C@@H](OC)C[C@H]3OC[C@@]3(OC(C)=O)[C@H]2[C@H](OC(=O)c2ccccc2)[C@]2(O)C[C@H](OC(=O)[C@H](O)[C@@H](NC(=O)OC(C)(C)C)c3ccccc3)C(C)=C1C2(C)C` [cabazitaxel], the solubility in alcohol entry was “soluble” and the solubility in water entry is “practically insoluble”. Also, the “bound to human serum albumin” value in series [1] is recorded as 82%. Also, the “saturability of the binding to human serum proteins” value in series [2] is recorded as “not saturable up to 50,000”.
